Experimental data published in US5840684A, “Glycopeptide antibiotic derivatives” (Eli Lilly and Company, priority 1995, dated 1998).
Converted amounts (≈) assume the structure as drawn.

Experiments:
[1] = system: Staphylococcus aureus S13E; type: cell-based
Procedure: (§1) The MIC's were determined using a standard broth micro-dilution assay.

[2] = system: Entercoccus faecium 180-1; experiment: broth micro-dilution MIC; type: cell-based
Procedure: as §1

[3] = system: Entercoccus faecium 276; experiment: broth micro-dilution MIC; type: cell-based
Procedure: as §1

[4] = system: Staphylococcus aureus 447; experiment: broth micro-dilution MIC; type: cell-based
Procedure: as §1

[5] = system: Staphylococcus aureus SA1199; experiment: broth micro-dilution MIC; type: cell-based
Procedure: as §1

[6] = system: Staphylococcus aureus X778; experiment: broth micro-dilution MIC; type: cell-based
Procedure: as §1

[7] = system: Streptococcus pyogenes C203; experiment: broth micro-dilution MIC; type: cell-based
Procedure: as §1

[8] = system: Entercoccus faecium 180; experiment: broth micro-dilution MIC; type: cell-based; conditions: Entercoccus faecium 180
Procedure: (§2) The formula I compounds have in vitro and in vivo activity against Gram-positive pathogenic bacteria. The MIC's were determined using a standard broth micro-dilution assay.

[9] = system: Entercoccus faecium 2041; experiment: broth micro-dilution MIC; type: cell-based; conditions: Entercoccus faecium 2041
Procedure: as §2

[10] = system: Enterococcus gallinarum 245; experiment: broth micro-dilution MIC; type: cell-based; conditions: Enterococcus gallinarum 245
Procedure: as §2

[11] = system: Haemophilus influenzae RD; experiment: broth micro-dilution MIC; type: cell-based; conditions: Haemophilus influenzae RD
Procedure: as §2

[12] = system: Staphylococcus epidermidis 270; experiment: broth micro-dilution MIC; type: cell-based
Procedure: as §2

[13] = system: Staphylococcus haemolyticus 105; experiment: broth micro-dilution MIC; type: cell-based
Procedure: as §2

[14] = system: Staphylococcus haemolyticus 415; experiment: broth micro-dilution MIC; type: cell-based
Procedure: as §2

[15] = system: Streptococcus pneumoniae P1; experiment: broth micro-dilution MIC; type: cell-based
Procedure: as §2

[16] = system: vancomycin-resistant enterococci; experiment: broth micro-dilution, mean geometric MIC; type: cell-based, Enterococcus faecium and Enterococcus faecalis; conditions: enterococci, 24-hour incubation
[17] = system: vancomycin-susceptible enterococci; experiment: broth micro-dilution, mean geometric MIC; type: cell-based, Enterococcus faecium and Enterococcus faecalis; conditions: enterococci, 24-hour incubation
[18] = system: Staphylococcus aureus SA1199B; type: cell-based
Procedure: as §1

[19] = system: Staphylococcus aureus 446; experiment: broth micro-dilution MIC; type: cell-based
Procedure: as §1

[20] = system: Staphylococcus aureus SA1199A; experiment: broth micro-dilution MIC; type: cell-based
Procedure: as §1

[21] = system: Staphylococcus aureus 489; experiment: broth micro-dilution MIC; type: cell-based
Procedure: as §1

[22] = system: Staphylococcus aureus 491; experiment: broth micro-dilution MIC; type: cell-based
Procedure: as §1

[23] = system: Staphylococcus aureus X400; experiment: broth micro-dilution MIC; type: cell-based
Procedure: as §1

CNC(CC(C)C)C(=O)NC1C(=O)NC(CC(N)=O)C(=O)NC2C(=O)NC3C(=O)NC(C(=O)NC(C(=O)O)c4cc(O)cc(O)c4-c4cc3ccc4O)C(OC3CC(C)(N)C(O)C(C)O3)c3ccc(c(Cl)c3)Oc3cc2cc(c3OC2OC(CO)C(O)C(O)C2OC2CC(C)(NCc3ccc(-c4ccc(C)cc4)cc3C)C(O)C(C)O2)Oc2ccc(cc2Cl)C1O (centres unmarked) [Compound 222]
MIC [1]: ≤ 0.06 µg/mL | MIC [2]: ≤ 0.06 µg/mL | MIC [3]: ≤ 0.06 µg/mL | MIC [4]: 0.5 µg/mL (≈ 0.28 µM) | MIC [5]: 1 µg/mL (≈ 0.56 µM) | MIC [6]: ≤ 0.06 µg/mL | MIC [7]: ≤ 0.06 µg/mL | MIC [8]: ≤ 0.06 µg/mL | MIC [9]: ≤ 0.06 µg/mL | MIC [10]: 1 µg/mL (≈ 0.56 µM) | MIC [11]: 32 µg/mL (≈ 17.9 µM) | MIC [12]: 0.5 µg/mL (≈ 0.28 µM) | MIC [13]: 1 µg/mL (≈ 0.56 µM) | MIC [14]: 1 µg/mL (≈ 0.56 µM) | MIC [15]: ≤ 0.06 µg/mL | mean geometric MIC, Vancomycin Resistant Strains [16]: 0.84 µg/mL | mean geometric MIC, Vancomycin Sensitive Strains [17]: 0.072 µg/mL

CNC(CC(C)C)C(=O)NC1C(=O)NC(CC(N)=O)C(=O)NC2C(=O)NC3C(=O)NC(C(=O)NC(C(=O)O)c4cc(O)cc(O)c4-c4cc3ccc4O)C(OC3CC(C)(N)C(O)C(C)O3)c3ccc(c(Cl)c3)Oc3cc2cc(c3OC2OC(CO)C(O)C(O)C2OC2CC(C)(NCc3ccc(-c4cccc(C)c4)cc3)C(O)C(C)O2)Oc2ccc(cc2Cl)C1O (centres unmarked) [Compound 224]
MIC [18]: 0.5 µg/mL (≈ 0.282 µM) | MIC [2]: ≤ 0.06 µg/mL | MIC [3]: ≤ 0.06 µg/mL | MIC [19]: 0.5 µg/mL (≈ 0.282 µM) | MIC [4]: 0.5 µg/mL (≈ 0.282 µM) | MIC [20]: ≤ 0.06 µg/mL | MIC [7]: ≤ 0.06 µg/mL | MIC [8]: ≤ 0.06 µg/mL | MIC [9]: ≤ 0.06 µg/mL | MIC [10]: 0.5 µg/mL (≈ 0.282 µM) | MIC [11]: 32 µg/mL (≈ 18.1 µM) | MIC [13]: 1 µg/mL (≈ 0.564 µM) | MIC [14]: 0.5 µg/mL (≈ 0.282 µM) | MIC [15]: ≤ 0.06 µg/mL | mean geometric MIC, Vancomycin Resistant Strains [16]: 0.63 µg/mL | mean geometric MIC, Vancomycin Sensitive Strains [17]: 0.055 µg/mL

CNC(CC(C)C)C(=O)NC1C(=O)NC(CC(N)=O)C(=O)NC2C(=O)NC3C(=O)NC(C(=O)NC(C(=O)O)c4cc(O)cc(O)c4-c4cc3ccc4O)C(OC3CC(C)(N)C(O)C(C)O3)c3ccc(c(Cl)c3)Oc3cc2cc(c3OC2OC(CO)C(O)C(O)C2OC2CC(C)(NCc3ccnc4ccccc34)C(O)C(C)O2)Oc2ccc(cc2Cl)C1O (centres unmarked) [Compound 27]
MIC [1]: 0.125 µg/mL (≈ 0.0721 µM) | MIC [18]: 1 µg/mL (≈ 0.577 µM) | MIC [2]: 0.5 µg/mL (≈ 0.288 µM) | MIC [3]: 0.5 µg/mL (≈ 0.288 µM) | MIC [19]: 2 µg/mL (≈ 1.15 µM) | MIC [4]: 8 µg/mL (≈ 4.61 µM) | MIC [21]: ≤ 0.06 µg/mL | MIC [22]: 1 µg/mL (≈ 0.577 µM) | MIC [20]: ≤ 0.06 µg/mL | MIC [5]: 0.5 µg/mL (≈ 0.288 µM) | MIC [23]: 0.5 µg/mL (≈ 0.288 µM) | MIC [6]: 0.5 µg/mL (≈ 0.288 µM) | MIC [7]: ≤ 0.06 µg/mL | MIC [8]: 8 µg/mL (≈ 4.61 µM) | MIC [9]: 0.125 µg/mL (≈ 0.0721 µM) | MIC [10]: 0.5 µg/mL (≈ 0.288 µM) | MIC [12]: 4 µg/mL (≈ 2.31 µM) | MIC [13]: 16 µg/mL (≈ 9.23 µM) | MIC [14]: 8 µg/mL (≈ 4.61 µM) | MIC [15]: ≤ 0.06 µg/mL | mean geometric MIC, Vancomycin Resistant Strains [16]: 45 µg/mL | mean geometric MIC, Vancomycin Sensitive Strains [17]: 1.5 µg/mL

CN[C@H](CC(C)C)C(=O)N[C@H]1C(=O)N[C@@H](CC(N)=O)C(=O)N[C@H]2C(=O)N[C@H]3C(=O)N[C@H](C(=O)N[C@H](C(=O)O)c4cc(O)cc(O)c4-c4cc3ccc4O)[C@H](O[C@H]3C[C@](C)(N)[C@@H](O)[C@H](C)O3)c3ccc(c(Cl)c3)Oc3cc2cc(c3O[C@@H]2O[C@H](CO)[C@@H](O)[C@H](O)[C@H]2O[C@H]2C[C@](C)(NCc3cccc(-c4ccccc4)c3)[C@@H](O)[C@H](C)O2)Oc2ccc(cc2Cl)[C@H]1O [Compound 91]
MIC [1]: ≤ 0.06 µg/mL | MIC [18]: 0.5 µg/mL (≈ 0.284 µM) | MIC [2]: ≤ 0.06 µg/mL | MIC [3]: ≤ 0.06 µg/mL | MIC [19]: 0.5 µg/mL (≈ 0.284 µM) | MIC [4]: 0.5 µg/mL (≈ 0.284 µM) | MIC [21]: ≤ 0.06 µg/mL | MIC [22]: 1 µg/mL (≈ 0.569 µM) | MIC [20]: ≤ 0.06 µg/mL | MIC [5]: ≤ 0.06 µg/mL | MIC [23]: 0.5 µg/mL (≈ 0.284 µM) | MIC [6]: ≤ 0.06 µg/mL | MIC [7]: ≤ 0.06 µg/mL | MIC [8]: 0.5 µg/mL (≈ 0.284 µM) | MIC [9]: ≤ 0.06 µg/mL | MIC [10]: 2 µg/mL (≈ 1.14 µM) | MIC [12]: 0.5 µg/mL (≈ 0.284 µM) | MIC [13]: 2 µg/mL (≈ 1.14 µM) | MIC [14]: 2 µg/mL (≈ 1.14 µM) | MIC [15]: ≤ 0.06 µg/mL | mean geometric MIC, Vancomycin Resistant Strains [16]: 2.8 µg/mL | mean geometric MIC, Vancomycin Sensitive Strains [17]: 0.11 µg/mL

CCCCCCCCCCC#CCNC1(C)CC(OC2C(Oc3c4cc5cc3Oc3ccc(cc3Cl)C(OC3CC(C)(N)C(O)C(C)O3)C3NC(=O)C(NC(=O)C5NC(=O)C(CC(N)=O)NC(=O)C(NC(=O)C(CC(C)C)NC)C(O)c5ccc(c(Cl)c5)O4)c4ccc(O)c(c4)-c4c(O)cc(O)cc4C(C(=O)O)NC3=O)OC(CO)C(O)C2O)OC(C)C1O (centres unmarked) [Compound 191]
MIC [1]: 2 µg/mL (≈ 1.13 µM) | MIC [18]: 2 µg/mL (≈ 1.13 µM) | MIC [2]: 0.25 µg/mL (≈ 0.141 µM) | MIC [3]: 4 µg/mL (≈ 2.26 µM) | MIC [19]: 2 µg/mL (≈ 1.13 µM) | MIC [4]: 2 µg/mL (≈ 1.13 µM) | MIC [21]: 2 µg/mL (≈ 1.13 µM) | MIC [22]: 1 µg/mL (≈ 0.565 µM) | MIC [20]: 0.5 µg/mL (≈ 0.282 µM) | MIC [5]: 2 µg/mL (≈ 1.13 µM) | MIC [23]: 1 µg/mL (≈ 0.565 µM) | MIC [6]: 2 µg/mL (≈ 1.13 µM) | MIC [7]: ≤ 0.06 µg/mL | MIC [8]: 4 µg/mL (≈ 2.26 µM) | MIC [9]: 1 µg/mL (≈ 0.565 µM) | MIC [10]: 8 µg/mL (≈ 4.52 µM) | MIC [12]: 2 µg/mL (≈ 1.13 µM) | MIC [13]: 2 µg/mL (≈ 1.13 µM) | MIC [14]: 8 µg/mL (≈ 4.52 µM) | MIC [15]: ≤ 0.06 µg/mL | mean geometric MIC, Vancomycin Resistant Strains [16]: 6.7 µg/mL | mean geometric MIC, Vancomycin Sensitive Strains [17]: 0.57 µg/mL

CNC(CC(C)C)C(=O)NC1C(=O)NC(CC(N)=O)C(=O)NC2C(=O)NC3C(=O)NC(C(=O)NC(C(=O)O)c4cc(O)cc(O)c4-c4cc3ccc4O)C(OC3CC(C)(N)C(O)C(C)O3)c3ccc(c(Cl)c3)Oc3cc2cc(c3OC2OC(CO)C(O)C(O)C2OC2CC(C)(NCc3ccc(N(C)c4ccccc4)cc3)C(O)C(C)O2)Oc2ccc(cc2Cl)C1O (centres unmarked) [Compound 178]
MIC [1]: 0.5 µg/mL (≈ 0.28 µM) | MIC [18]: 1 µg/mL (≈ 0.559 µM) | MIC [2]: ≤ 0.06 µg/mL | MIC [3]: 0.5 µg/mL (≈ 0.28 µM) | MIC [19]: 1 µg/mL (≈ 0.559 µM) | MIC [4]: 0.5 µg/mL (≈ 0.28 µM) | MIC [20]: ≤ 0.06 µg/mL | MIC [5]: 1 µg/mL (≈ 0.559 µM) | MIC [6]: 1 µg/mL (≈ 0.559 µM) | MIC [7]: ≤ 0.06 µg/mL | MIC [8]: 0.25 µg/mL (≈ 0.14 µM) | MIC [9]: ≤ 0.06 µg/mL | MIC [10]: 2 µg/mL (≈ 1.12 µM) | MIC [11]: 4 µg/mL (≈ 2.24 µM) | MIC [12]: 0.25 µg/mL (≈ 0.14 µM) | MIC [13]: 1 µg/mL (≈ 0.559 µM) | MIC [14]: 2 µg/mL (≈ 1.12 µM) | MIC [15]: ≤ 0.06 µg/mL | mean geometric MIC, Vancomycin Resistant Strains [16]: 2.8 µg/mL | mean geometric MIC, Vancomycin Sensitive Strains [17]: 0.13 µg/mL
